The values that follow come from patent US9688702B2, “Alpha-amino boronic acid derivatives, selective immunoproteasome inhibitors” (Ares Trading S.A, priority 2011, dated 2017).

As a reminder, the IC50 is the concentration needed to halve the response being measured. A lower IC50 goes with greater potency in that assay.

Assay [1] addresses Beta5 (purified human constitutive proteasome) (Homo sapiens, UniProt P28074). As to the kind of experiment: Determination of Beta5 activity (fluorescence intensity assay, Suc-LLVY-AMC). Type of assay: biochemical. The settings on record: purified human constitutive proteasome 1.0 nM, 40 μM Suc-LLVY-AMC, 37° C. The gist of the method: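 Purified human constitutive proteasome (1.0 nM) was preincubated 30 min at 37 °C with compounds (10 μM to 38 pM) in 50 mM Tris pH 7.4, 0.03% SDS. Suc-LLVY-AMC (40 μM) was then added and fluorescence (ex 350/em 450 nm) read after 90 min at 37 °C.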

Assay [2] addresses LMP7 (purified human immuno proteasome) (Homo sapiens, UniProt P28062). As to the kind of experiment: Determination of LMP7 activity (fluorescence intensity assay, Suc-LLVY-AMC). Type of assay: biochemical. The conditions noted are these: for IC50: 40 μM Suc-LLVY-AMC, 37° C. The gist of the method:
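Purified human immunoproteasome (0.5 nM or 0.25 nM) preincubated 30 min at 37 °C with compounds (10 μM to 38 pM) in 50 mM Tris pH 7.4, 0.03% SDS. Suc-LLVY-AMC added at 40 μM; after 90 min at 37 °C, fluorescence read at ex 350/em 450 nm.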

[3] abbreviates: purified human immuno proteasome 0.5 nM.

Consider `O=C(CCn1cnc2ccccc21)N[C@@H](Cc1csc2ccccc12)B(O)O` [Example 106, (R)-(1-(3-(1H-benzo[d]imidazol-1-yl)propanamido)-2-(benzo[b]thiophen-3-yl)ethyl)boronic acid], for which the IC50 in assay [1] and in assay [2] (setting [3]) was < 50 nM each time. Further, the “Selectivity LMP7 vs Beta5” value in assay [2] is recorded as “++ (++: 10 < Selectivity < 30)”.
For the compound `O=C(CCn1cc(-c2ccccc2)nn1)N[C@@H](Cc1ccc2c(c1)OCO2)B(O)O` [Example 107, (R)-(2-(benzo[d][1,3]dioxol-5-yl)-1-(3-(4-phenyl-1H-1,2,3-triazol-1-yl)propanamido)ethyl)boronic acid], the IC50 in assay [1] and in assay [2] (setting [3]) was < 50 nM each time. The “Selectivity LMP7 vs Beta5” value in assay [2] is “++ (++: 10 < Selectivity < 30)”.
Regarding `COc1ccc2occ(C[C@H](NC(C)=O)B(O)O)c2c1` [Example 108, (R)-(1-acetamido-2-(5-methoxybenzofuran-3-yl)ethyl)boronic acid], the IC50 in assay [1] and in assay [2] (setting [3]) was > 5000 nM throughout. The “Selectivity LMP7 vs Beta5” value in assay [2] is given as “+ (+: Selectivity < 10)”.
For the compound `COc1ccc2occ(C[C@H](NC(=O)CCn3c(=O)sc4ccccc43)B(O)O)c2c1` [Example 109, (R)-(2-(5-methoxybenzofuran-3-yl)-1-(3-(2-oxobenzo[d]thiazol-3(2H)-yl)propanamido)ethyl)boronic acid], the IC50 in assay [1] is 50 to 500 nM; in assay [2] (setting [3]) it was < 50 nM. The “Selectivity LMP7 vs Beta5” value in assay [2] is listed as “+ (+: Selectivity < 10)”.
For `CCc1cccc(C[C@H](NC(=O)C(Cn2cc(-c3ccccc3)nn2)Cn2ccsc2=O)B(O)O)c1` (stereo partly drawn) [Example 110, ((1R)-2-(3-ethylphenyl)-1-(3-(2-oxothiazol-3(2H)-yl)-2-((4-phenyl-1H-1,2,3-triazol-1-yl)methyl)propanamido)ethyl)boronic acid], the IC50 is < 50 nM in assay [1]; < 50 nM in assay [2] (purified human immuno proteasome 0.25 nM (examples 79, 80, 83, 84, 85, 87, 88, 89, 90, 91, 93, 94, 96, 97, 101 and 110)). Further, the “Selectivity LMP7 vs Beta5” value in assay [2] was “++ (++: 10 < Selectivity < 30)”.
